The text below walks through data of patent US7541398B2, “Method for transformation of conventional and commercially important polymers into durable and rechargeable antimicrobial polymeric materials” (priority 2005, dated 2009).

This series can be described thus: Durability of SHC powders: active chlorine content titrated after storage under ambient conditions. Format: physicochemical. The settings on record: for active chlorine content: as synthesized, before storage; for Active chlorine content, 2 month / Active chlorine content, 4 month / Active chlorine content, 6 month: storage at about 25° C.±3, humidity about 60±10%. The method, then:
Durability and Rechargeability of the SHCs. Durability: After storage under ambient conditions (e.g., temperature about 25° C.±3, humidity about 60±10%) for a certain period of time, the active chlorine contents in the SHC samples were titrated and the results were listed in Table 3.

Turning to `CC1(C)CC(OC(=O)CCCCCCCCC(=O)OC2CC(C)(C)N(Cl)C(C)(C)C2)CC(C)(C)N1Cl` [SHC-1, Bis(N-chloro-2,2,6,6-tetramethyl-4-piperidyl)sebacate], the active chlorine content is 12.5%; the “Active chlorine content, 2 month” value worked out at 12.6 wt. %; the “Active chlorine content, 4 month” value is recorded as 12.8 wt. %; the “Active chlorine content, 6 month” value was found to be 12.4 wt. %.
For the compound “N-chloro-[(2,2,6,6-tetramethyl-4-piperidyl) alkyl formate] [SHC-3]”, the active chlorine content result is “about 7.86%”; the “Active chlorine content, 2 month” value is given as 8.10 wt. %; the “Active chlorine content, 4 month” value is listed as 7.70 wt. %; the “Active chlorine content, 6 month” value was 7.30 wt. %.
